Reference: ChEMBL document CHEMBL1127998, “Conformationally constrained analogues of diacylglycerol. 9.1 the effect of side-chain orientation on the protein kinase C (PK-C) binding affinity of -lactones” (Bioorg Med Chem Lett, 1994)

Test: Displacement of [3H-20]-phorbol-12-13-dibutyrate from protein kinase C (alpha, beta, gamma) of mouse brain
Assay type: tissue-based

Row | Ki [nM] | Compound
1 | 600 | CCCCCCCCCCCCC/C=C1/C(=O)O[C@@H](CO)[C@@H]1OC(C)=O
2 | 2500 | CCCCCCCCCCCCCC(=O)O[C@@H]1CC(=O)O[C@H]1CO
3 | 2800 | CCCCCCCCCCCCCC(=O)O[C@@H]1CCC(=O)O[C@H]1CO
4 | 200 | CCCCCCCCCCCCC/C=C1\C(=O)O[C@@H](CO)[C@@H]1OC(C)=O
